Reference: patent publication US12139499B2, “Heteroaryl compounds for treating Huntington's disease” (PTC THERAPEUTICS, INC., priority 2018, dated 2024)

Each compound was assayed on Endogenous Huntingtin Protein (assay: Endogenous Huntingtin Protein Assay (ELISA-based MSD electrochemiluminescence)). Settings: Table 1.
Assay type: cell-based
How it was run: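 Huntingtin was captured overnight at 4 °C on plates coated with 1 μg/mL MW1 (polyQ-expanded) or MAB2166 antibody and BSA-blocked. Detection used a rabbit monoclonal and then a SULFO-TAG goat anti-rabbit antibody (0.25 μg/mL, 1 h each, room temperature). Signal was read by electrochemiluminescence.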

First: Cc1cn2nc(-c3cc(F)c4nc(C5CCNCC5)sc4c3)cc(C(=O)O)c2n1 [Compound 219, 6-[4-fluoro-2-(piperidin-4-yl)-1,3-benzothiazol-6-yl]-2-methylimidazo[1,2-b]pyridazine-8-carboxylic acid]
Second: COC(=O)Cc1cc(-c2cc(F)c3nc(C4CCNCC4)sc3c2)nn2cc(C)nc12 [Compound 220, methyl {6-[4-fluoro-2-(piperidin-4-yl)-1,3-benzothiazol-6-yl]-2-methylimidazo[1,2-b]pyridazin-8-yl}acetate]
The IC50 of the first is higher: 1000 to 3000 nM for the first, at most 100 nM for the second.

`Cc1cn2nc(-c3cc(F)c4nc(C5=CCNCC5)sc4c3)ccc2n1` [Compound 44, 6-[4-fluoro-2-(1,2,3,6-tetrahydropyridin-4-yl)-1,3-benzothiazol-6-yl]-2-methylimidazo[1,2-b]pyridazine] and `Cc1cn2nc(-c3cc(F)c4nc(N5CCNCC5)sc4c3)cc(C)c2n1` [Compound 120, 6-[4-fluoro-2-(piperazin-1-yl)-1,3-benzothiazol-6-yl]-2,8-dimethylimidazo[1,2-b]pyridazine] cannot be ordered by IC50: at most 100 nM for the first, at most 100 nM for the second.

`CN(c1nc2nnc(-c3ccc(-c4c[nH]nc4F)cc3O)cc2s1)C1CCCNCC1` (stereo not shown) [Compound 398, 2-{6-[(azepan-4-yl)(methyl)amino][1,3]thiazolo[4,5-c]pyridazin-3-yl)-5-(3-fluoro-1H-pyrazol-4-yl)phenol] and `CN(c1nc2nnc(-c3ccc(-c4c[nH]nc4F)cc3O)cc2s1)C1CCNC1` (stereo not shown) [Compound 387, 5-(3-fluoro-1H-pyrazol-4-yl)-2-[6-[methyl(pyrrolidin-3-yl)amino][1,3]thiazolo[4,5-c]pyridazin-3-yl}phenol] cannot be ordered by IC50: at most 100 nM for the first, at most 100 nM for the second.

`CN1CC(N(C)c2nc3nnc(-c4ccc(-c5cn[nH]c5)cc4O)cc3s2)C1` [Compound 343, 2-{6-[methyl(1-methylazetidin-3-yl)amino][1,3]thiazolo[4,5-c]pyridazin-3-yl}-5-(1H-pyrazol-4-yl)phenol] and `CN1CCC(N(C)c2nc3nnc(-c4ccc(-c5cn[nH]c5)cc4O)cc3s2)C1` (stereo not shown) [Compound 375, 2-{6-[methyl(1-methylpyrrolidin-3-yl)amino][1,3]thiazolo[4,5-c]pyridazin-3-yl}-5-(1H-pyrazol-4-yl)phenol] cannot be ordered by IC50: 100 to 500 nM for the first, at most 100 nM for the second.

`CN(c1nc2cnc(-c3cc(F)c4nn(C)cc4c3)cc2s1)C1CC2CCC(C1)N2` (stereo not drawn) [Compound 205, N-[(3-exo)-8-azabicyclo[3.2.1]oct-3-yl]-6-(7-fluoro-2-methyl-2H-indazol-5-yl)-N-methyl[1,3]thiazolo[4,5-c]pyridin-2-amine] and `Cc1cn2nc(-c3cc(F)c4nc(N(C)C5CC6CCC(C5)N6)sc4c3)cc(C)c2n1` (stereo not drawn) [Compound 192, N-[(3-exo)-8-azabicyclo[3.2.1]oct-3-yl]-6-(2,8-dimethylimidazo[1,2-b]pyridazin-6-yl)-4-fluoro-N-methyl-1,3-benzothiazol-2-amine] cannot be ordered by IC50: at most 100 nM for the first, at most 100 nM for the second.

`Cc1cn2cc(-c3cc4sc(N(C)C5CC(C)(C)NC(C)(C)C5)nc4nn3)cc(F)c2n1` [Compound 157, 3-(8-fluoro-2-methylimidazo[1,2-a]pyridin-6-yl)-N-methyl-N-(2,2,6,6-tetramethylpiperidin-4-yl)[1,3]thiazolo[4,5-c]pyridazin-6-amine] and `Cc1cn2cc(-c3ncc4nc(N(C)C5CC(C)(C)NC(C)(C)C5)sc4n3)cc(C)c2n1` [Compound 183, 5-(2,8-dimethylimidazo[1,2-a]pyridin-6-yl)-N-methyl-N-(2,2,6,6-tetramethylpiperidin-4-yl)[1,3]thiazolo[5,4-d]pyrimidin-2-amine] cannot be ordered by IC50: at most 100 nM for the first, at most 100 nM for the second.

First: Cn1cc2cc(-c3nc4ccc(C5CCNCC5)cc4s3)ccc2n1 [Compound 5, 2-(2-methyl-2H-indazol-5-yl)-6-(piperidin-4-yl)-1,3-benzothiazole]
Second: Cn1cc2cc(-c3ccc4nc(C5CCNCC5)sc4c3)cc(C#N)c2n1 [Compound 84, 2-methyl-5-[2-(piperidin-4-yl)-1,3-benzothiazol-6-yl]-2H-indazole-7-carbonitrile]
The IC50 of the first is higher: 500 to 1000 nM for the first, at most 100 nM for the second. The second is the more potent here.

`Cc1cn2cc(-c3cc4sc(N(C)C5CC6CCCC(C5)N6)nc4cn3)cc(C)c2n1` (stereo not shown) [Compound 261, N-(9-azabicyclo[3.3.1]non-3-yl)-6-(2,8-dimethylimidazo[1,2-a]pyridin-6-yl)-N-methyl[1,3]thiazolo[4,5-c]pyridin-2-amine] and `Cc1cn2cc(-c3cc4sc(N(C)C5CC6CCCC(C5)N6)nc4cn3)cc(C#N)c2n1` (stereo not shown) [Compound 251, 6-{2-[9-azabicyclo[3.3.1]non-3-yl(methyl)amino][1,3]thiazolo[4,5-c]pyridin-6-yl}-2-methylimidazo[1,2-a]pyridine-8-carbonitrile] cannot be ordered by IC50: at most 100 nM for the first, at most 100 nM for the second.

`Cc1cn2cc(-c3ccc4nc(N(C)C5CC6CCC(C5)N6)sc4n3)cc(F)c2n1` (stereo not drawn) [Compound 277, N-[(3-exo)-8-azabicyclo[3.2.1]oct-3-yl]-5-(8-fluoro-2-methylimidazo[1,2-a]pyridin-6-yl)-N-methyl[1,3]thiazolo[5,4-b]pyridin-2-amine] and `Cc1cn2cc(-c3ccc4nc(N(C)C5CC6CCC(C5)N6)sc4n3)cc(C#N)c2n1` (stereo not drawn) [Compound 276, 6-{2-[(3-exo)-8-azabicyclo[3.2.1]oct-3-yl(methyl)amino][1,3]thiazolo[5,4-b]pyridin-5-yl}-2-methylimidazo[1,2-a]pyridine-8-carbonitrile] cannot be ordered by IC50: 100 to 500 nM for the first, at most 100 nM for the second.

`Cc1nc2ccc(-c3ccc4nc(C5CCNCC5)sc4c3)cc2[nH]1` [Compound 95, 6-(2-methyl-1H-benzimidazol-6-yl)-2-(piperidin-4-yl)-1,3-benzothiazole] and `Cn1cc2cc(-c3cc4sc(C5CCNCC5)nc4cn3)cc(C#N)c2n1` [Compound 74, 2-methyl-5-[2-(piperidin-4-yl)[1,3]thiazolo[4,5-c]pyridin-6-yl]-2H-indazole-7-carbonitrile] cannot be ordered by IC50: 100 to 500 nM for the first, at most 100 nM for the second.

`Cc1cn2cc(-c3cc4sc(NC5CC(C)(C)N(C)C(C)(C)C5)nc4cn3)cc(C#N)c2n1` [Compound 266, 2-methyl-6-{2-[(1,2,2,6,6-pentamethylpiperidin-4-yl)amino][1,3]thiazolo[4,5-c]pyridin-6-yl}imidazo[1,2-a]pyridine-8-carbonitrile] and `Cc1cn2cc(-c3cc4sc(NC5CC6CCC(C5)N6)nc4cn3)cc(C#N)c2n1` (stereo not drawn) [Compound 199, 6-{2-[(3-exo)-8-azabicyclo[3.2.1]oct-3-ylamino][1,3]thiazolo[4,5-c]pyridin-6-yl}-2-methylimidazo[1,2-a]pyridine-8-carbonitrile] cannot be ordered by IC50: 100 to 500 nM for the first, at most 100 nM for the second.

First: Cc1cn2cc(-c3ccc4nc(N(C)C5CC(C)(C)NC(C)(C)C5)sc4n3)ccc2n1 [Compound 129, N-methyl-5-(2-methylimidazo[1,2-a]pyridin-6-yl)-N-(2,2,6,6-tetramethylpiperidin-4-yl)[1,3]thiazolo[5,4-b]pyridin-2-amine]
Second: Cc1cn2cc(-c3ccc4nc(N(C)C5CC(C)(C)NC(C)(C)C5)sc4n3)cc(C#N)c2n1 [Compound 178, 2-methyl-6-{2-[methyl(2,2,6,6-tetramethylpiperidin-4-yl)amino][1,3]thiazolo[5,4-b]pyridin-5-yl}imidazo[1,2-a]pyridine-8-carbonitrile]
The IC50 of the first is higher: 500 to 1000 nM for the first, at most 100 nM for the second.

`CN(c1nc2cnc(-c3cc(F)c4nn(C)cc4c3)nc2s1)C1CC2(C)CC[C@](C)(C1)N2` (stereo partly drawn) [Compound 289, N-[(1R)-1,5-dimethyl-8-azabicyclo[3.2.1]octan-3-yl]-5-(7-fluoro-2-methyl-2H-indazol-5-yl)-N-methyl[1,3]thiazolo[5,4-d]pyrimidin-2-amine] and `CN(c1nc2ccc(-c3cc(F)c4nn(C)cc4c3)nc2s1)C1CC2(C)CCC(C)(C1)N2` [Compound 294, N-[(1R,3s,5S)-1,5-dimethyl-8-azabicyclo[3.2.1]octan-3-yl]-5-(7-fluoro-2-methyl-2H-indazol-5-yl)-N-methyl[1,3]thiazolo[5,4-b]pyridin-2-amine] cannot be ordered by IC50: at most 100 nM for the first, 100 to 500 nM for the second.

`C[C@@H]1C[C@@H](N(C)c2nc3nnc(-c4ccc(-c5cn[nH]c5)cc4O)cc3s2)CCN1C` [Compound 397, 2-(6-{[(2R,4S)-1,2-dimethylpiperidin-4-yl](methyl)amino}[1,3]thiazolo[4,5-c]pyridazin-3-yl)-5-(1H-pyrazol-4-yl)phenol] and `Oc1cc(-c2cn[nH]c2)ccc1-c1cc2sc(NC3CCNCC3)nc2nn1` [Compound 357, 2-{6-[(piperidin-4-yl)amino][1,3]thiazolo[4,5-c]pyridazin-3-yl)-5-(1H-pyrazol-4-yl)phenol] cannot be ordered by IC50: at most 100 nM for the first, 100 to 500 nM for the second.

`CC1CC(N(C)c2nc3cnc(-c4cc(C#N)c5nn(C)cc5c4)cc3s2)CCN1C` (stereo not shown) [Compound 377, 5-{2-[(1,2-dimethylpiperidin-4-yl)(methyl)amino][1,3]thiazolo[4,5-c]pyridin-6-yl}-2-methyl-2H-indazole-7-carbonitrile] and `CN(c1nc2cnc(-c3cc(C#N)c4nn(C)cc4c3)cc2s1)C1CC(C)(C)NC(C)(C)C1` [Compound 117, 2-methyl-5-{2-[methyl(2,2,6,6-tetramethylpiperidin-4-yl)amino][1,3]thiazolo[4,5-c]pyridin-6-yl}-2H-indazole-7-carbonitrile] cannot be ordered by IC50: 100 to 500 nM for the first, at most 100 nM for the second.

`Cn1cc2cc(-c3cc4sc(OC5CCNCC5)nc4cn3)cc(F)c2n1` [Compound 316, 6-(7-fluoro-2-methyl-2H-indazol-5-yl)-2-[(piperidin-4-yl)oxy][1,3]thiazolo[4,5-c]pyridine] and `Cc1cn2cc(-c3cc4sc(OC5CCNCC5)nc4cn3)cc(F)c2n1` [Compound 314, 6-(8-fluoro-2-methylimidazo[1,2-a]pyridin-6-yl)-2-[(piperidin-4-yl)oxy][1,3]thiazolo[4,5-c]pyridine] fall in the same range of IC50: 100 to 500 nM for the first, 100 to 500 nM for the second.

First: CC1(C)C=C(c2cc3sc(-c4ccc(-c5cn[nH]c5)cc4O)nc3cn2)CC(C)(C)N1 [Compound 337, 5-(1H-pyrazol-4-yl)-2-[6-(2,2,6,6-tetramethyl-1,2,3,6-tetrahydropyridin-4-yl)[1,3]thiazolo[4,5-c]pyridin-2-yl]phenol]
Second: Cc1cc(-c2ncc3nc(N(C)C4CC(C)(C)NC(C)(C)C4)sc3c2F)cc2cn(C)nc12 [Compound 101, 6-(2,7-dimethyl-2H-indazol-5-yl)-7-fluoro-N-methyl-N-(2,2,6,6-tetramethylpiperidin-4-yl)[1,3]thiazolo[4,5-c]pyridin-2-amine]
The IC50 of the first is higher: 500 to 1000 nM for the first, 100 to 500 nM for the second. The second is the more potent here.
